Assay results reported in ChEMBL document CHEMBL4507258 (2021).

What was measured:
[1] = biological target: Protein-tyrosine kinase 2-beta (Homo sapiens) (UniProt Q14289); settings: Compound concentration 1000.0 nM
[2] = biological target: Tyrosine-protein kinase CSK (Homo sapiens) (UniProt P41240); settings: Compound concentration 1000.0 nM
[3] = biological target: Serine/threonine-protein kinase PAK 6 (Homo sapiens) (UniProt Q9NQU5); settings: Compound concentration 1000.0 nM
[4] = biological target: Serine/threonine-protein kinase Nek3 (Homo sapiens) (UniProt P51956); settings: Compound concentration 1000.0 nM
[5] = biological target: Interferon-induced, double-stranded RNA-activated protein kinase (Homo sapiens) (UniProt P19525); settings: Compound concentration 1000.0 nM
[6] = biological target: Macrophage colony-stimulating factor 1 receptor (Homo sapiens) (UniProt P07333); settings: Compound concentration 1000.0 nM
[7] = tested on: Epidermal growth factor receptor (Homo sapiens), P00533 [UNDEFINED MUTATION]; settings: Compound concentration 1000.0 nM
[8] = tested on: Hepatocyte growth factor receptor (Homo sapiens), P08581 [M1250T]; settings: Compound concentration 1000.0 nM
[9] = biological target: Ribosomal protein S6 kinase beta-1 (Homo sapiens) (UniProt P23443); settings: Compound concentration 1000.0 nM
[10] = biological target: Tyrosine-protein kinase TXK (Homo sapiens) (UniProt P42681); settings: Compound concentration 1000.0 nM
[11] = biological target: Protein kinase C delta type (Homo sapiens) (UniProt Q05655); settings: Compound concentration 1000.0 nM
[12] = biological target: 5-hydroxytryptamine receptor 1E (Homo sapiens) (UniProt P28566); settings: Compound concentration 10.0 uM
[13] = biological target: Serine/threonine-protein kinase NLK (Homo sapiens) (UniProt Q9UBE8); settings: Compound concentration 1000.0 nM
[14] = biological target: Serine/threonine-protein kinase 38 (Homo sapiens) (UniProt Q15208); settings: Compound concentration 1000.0 nM
[15] = biological target: Mitogen-activated protein kinase kinase kinase 3 (Homo sapiens) (UniProt Q99759); settings: Compound concentration 1000.0 nM
[16] = biological target: Rhodopsin kinase GRK1 (Homo sapiens) (UniProt Q15835); settings: Compound concentration 1000.0 nM
[17] = biological target: MAP/microtubule affinity-regulating kinase 3 (Homo sapiens) (UniProt P27448); settings: Compound concentration 1000.0 nM
[18] = biological target: T1, Muscarinic acetylcholine receptor M2 (Homo sapiens) (UniProt P08172); settings: Compound concentration 10.0 uM
T1 sequence (whole entry): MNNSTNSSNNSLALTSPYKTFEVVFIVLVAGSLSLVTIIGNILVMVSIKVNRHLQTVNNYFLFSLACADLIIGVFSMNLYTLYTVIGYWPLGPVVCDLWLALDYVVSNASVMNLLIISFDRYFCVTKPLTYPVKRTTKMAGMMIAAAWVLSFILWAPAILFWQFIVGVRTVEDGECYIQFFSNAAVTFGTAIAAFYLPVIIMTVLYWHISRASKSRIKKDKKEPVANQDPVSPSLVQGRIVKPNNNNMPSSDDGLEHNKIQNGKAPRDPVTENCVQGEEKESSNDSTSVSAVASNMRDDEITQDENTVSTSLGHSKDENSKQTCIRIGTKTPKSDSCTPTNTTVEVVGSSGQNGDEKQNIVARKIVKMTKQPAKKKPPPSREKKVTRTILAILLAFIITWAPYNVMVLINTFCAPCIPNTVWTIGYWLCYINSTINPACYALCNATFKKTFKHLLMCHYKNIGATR

[19] = biological target: Serine/threonine-protein kinase RIO2 (Homo sapiens) (UniProt Q9BVS4); settings: Compound concentration 1000.0 nM
[20] = biological target: Mitogen-activated protein kinase kinase kinase 20 (Homo sapiens) (UniProt Q9NYL2); settings: Compound concentration 1000.0 nM
[21] = biological target: Mitogen-activated protein kinase 1 (Homo sapiens) (UniProt P28482); settings: Compound concentration 1000.0 nM
[22] = biological target: Bone morphogenetic protein receptor type-1B (Homo sapiens) (UniProt O00238); settings: Compound concentration 1000.0 nM
[23] = biological target: D(1B) dopamine receptor (Homo sapiens) (UniProt P21918); settings: Compound concentration 10.0 uM
[24] = biological target: T2, 5-hydroxytryptamine receptor 1A (Homo sapiens) (UniProt P08908); settings: Compound concentration 10.0 uM
T2 sequence (whole entry): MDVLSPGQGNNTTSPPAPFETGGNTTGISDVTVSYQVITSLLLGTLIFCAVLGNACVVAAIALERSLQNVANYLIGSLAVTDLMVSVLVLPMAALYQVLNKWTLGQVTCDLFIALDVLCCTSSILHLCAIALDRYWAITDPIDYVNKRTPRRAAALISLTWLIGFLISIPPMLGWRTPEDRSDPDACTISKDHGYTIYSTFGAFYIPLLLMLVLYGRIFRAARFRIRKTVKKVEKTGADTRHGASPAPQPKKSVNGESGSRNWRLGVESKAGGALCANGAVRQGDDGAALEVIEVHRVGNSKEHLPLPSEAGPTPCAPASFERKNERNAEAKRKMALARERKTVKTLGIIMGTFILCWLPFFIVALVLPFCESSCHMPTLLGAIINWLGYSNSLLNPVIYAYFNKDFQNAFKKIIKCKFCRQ

[25] = biological target: Activin receptor type-1B (Homo sapiens) (UniProt P36896); settings: Compound concentration 1000.0 nM
[26] = biological target: Tyrosine-protein kinase ABL1 (Homo sapiens) (UniProt P00519); settings: Compound concentration 1000.0 nM
[27] = biological target: Activated CDC42 kinase 1 (Homo sapiens) (UniProt Q07912); settings: Compound concentration 1000.0 nM
[28] = biological target: Serine/threonine-protein kinase RIO1 (Homo sapiens) (UniProt Q9BRS2); settings: Compound concentration 1000.0 nM
[29] = biological target: Activin receptor type-1-like (Homo sapiens) (UniProt P37023); settings: Compound concentration 1000.0 nM
[30] = biological target: Casein kinase I isoform delta (Homo sapiens) (UniProt P48730); settings: Compound concentration 1000.0 nM
[31] = biological target: Phosphatidylinositol 5-phosphate 4-kinase type-2 gamma (Homo sapiens) (UniProt Q8TBX8); settings: Compound concentration 1000.0 nM
[32] = biological target: Serine/threonine-protein kinase PAK 2 (Homo sapiens) (UniProt Q13177); settings: Compound concentration 1000.0 nM
[33] = biological target: Angiopoietin-1 receptor (Homo sapiens) (UniProt Q02763); settings: Compound concentration 1000.0 nM

Chain of Macrophage colony-stimulating factor 1 receptor (Homo sapiens) (P07333 whole entry): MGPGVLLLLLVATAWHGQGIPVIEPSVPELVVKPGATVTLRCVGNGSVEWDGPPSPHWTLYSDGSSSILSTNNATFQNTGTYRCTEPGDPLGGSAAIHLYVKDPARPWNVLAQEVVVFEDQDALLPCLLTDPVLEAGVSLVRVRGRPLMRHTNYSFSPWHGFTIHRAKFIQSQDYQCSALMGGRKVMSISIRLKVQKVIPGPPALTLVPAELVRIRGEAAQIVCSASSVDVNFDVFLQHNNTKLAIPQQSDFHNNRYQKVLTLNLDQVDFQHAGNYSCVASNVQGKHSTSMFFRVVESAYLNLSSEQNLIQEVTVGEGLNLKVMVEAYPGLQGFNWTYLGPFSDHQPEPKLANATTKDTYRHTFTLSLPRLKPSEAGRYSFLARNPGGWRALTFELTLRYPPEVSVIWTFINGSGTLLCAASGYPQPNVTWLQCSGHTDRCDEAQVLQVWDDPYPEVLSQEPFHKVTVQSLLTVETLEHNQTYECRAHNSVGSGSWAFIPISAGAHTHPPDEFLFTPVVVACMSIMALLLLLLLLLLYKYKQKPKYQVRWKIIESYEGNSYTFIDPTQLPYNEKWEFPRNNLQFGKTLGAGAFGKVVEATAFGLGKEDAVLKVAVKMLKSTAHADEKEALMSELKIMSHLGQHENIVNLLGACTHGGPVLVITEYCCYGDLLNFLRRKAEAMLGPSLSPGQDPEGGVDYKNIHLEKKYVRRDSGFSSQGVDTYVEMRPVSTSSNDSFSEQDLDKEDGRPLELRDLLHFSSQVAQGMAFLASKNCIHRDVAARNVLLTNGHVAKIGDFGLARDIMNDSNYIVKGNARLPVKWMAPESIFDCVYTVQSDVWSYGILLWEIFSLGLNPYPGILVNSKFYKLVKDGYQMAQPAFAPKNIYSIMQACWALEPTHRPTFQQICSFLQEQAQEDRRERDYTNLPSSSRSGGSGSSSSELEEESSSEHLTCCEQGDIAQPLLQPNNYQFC
Chain of Ribosomal protein S6 kinase beta-1 (Homo sapiens) (P23443 whole entry, looked up): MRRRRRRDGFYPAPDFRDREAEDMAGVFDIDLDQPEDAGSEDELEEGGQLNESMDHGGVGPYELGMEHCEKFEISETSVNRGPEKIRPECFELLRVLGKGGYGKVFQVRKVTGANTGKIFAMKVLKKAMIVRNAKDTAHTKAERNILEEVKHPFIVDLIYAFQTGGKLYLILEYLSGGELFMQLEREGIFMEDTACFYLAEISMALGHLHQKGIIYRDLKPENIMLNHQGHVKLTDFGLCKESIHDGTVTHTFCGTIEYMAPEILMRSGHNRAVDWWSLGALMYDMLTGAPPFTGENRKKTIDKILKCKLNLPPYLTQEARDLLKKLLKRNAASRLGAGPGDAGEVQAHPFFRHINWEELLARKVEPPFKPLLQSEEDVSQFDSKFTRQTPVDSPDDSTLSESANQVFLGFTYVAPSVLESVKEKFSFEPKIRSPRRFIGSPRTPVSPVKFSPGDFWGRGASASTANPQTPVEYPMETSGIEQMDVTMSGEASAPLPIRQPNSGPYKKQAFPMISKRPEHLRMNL
Chain of Interferon-induced, double-stranded RNA-activated protein kinase (Homo sapiens) (P19525 whole entry): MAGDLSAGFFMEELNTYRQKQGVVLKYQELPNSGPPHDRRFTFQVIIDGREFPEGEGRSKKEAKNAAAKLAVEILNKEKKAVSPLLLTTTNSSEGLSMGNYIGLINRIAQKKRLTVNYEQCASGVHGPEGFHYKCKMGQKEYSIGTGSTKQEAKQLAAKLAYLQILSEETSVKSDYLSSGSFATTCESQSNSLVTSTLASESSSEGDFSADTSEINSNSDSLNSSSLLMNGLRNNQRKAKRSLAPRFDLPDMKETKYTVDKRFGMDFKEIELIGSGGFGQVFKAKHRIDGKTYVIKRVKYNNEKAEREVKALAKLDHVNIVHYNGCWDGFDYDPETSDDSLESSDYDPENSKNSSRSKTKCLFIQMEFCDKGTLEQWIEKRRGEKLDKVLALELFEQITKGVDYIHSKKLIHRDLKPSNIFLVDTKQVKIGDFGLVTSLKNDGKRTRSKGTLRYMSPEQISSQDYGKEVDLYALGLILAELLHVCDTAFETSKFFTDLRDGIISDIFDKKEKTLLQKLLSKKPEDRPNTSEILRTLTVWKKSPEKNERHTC
Chain of D(1B) dopamine receptor (Homo sapiens) (P21918 whole entry): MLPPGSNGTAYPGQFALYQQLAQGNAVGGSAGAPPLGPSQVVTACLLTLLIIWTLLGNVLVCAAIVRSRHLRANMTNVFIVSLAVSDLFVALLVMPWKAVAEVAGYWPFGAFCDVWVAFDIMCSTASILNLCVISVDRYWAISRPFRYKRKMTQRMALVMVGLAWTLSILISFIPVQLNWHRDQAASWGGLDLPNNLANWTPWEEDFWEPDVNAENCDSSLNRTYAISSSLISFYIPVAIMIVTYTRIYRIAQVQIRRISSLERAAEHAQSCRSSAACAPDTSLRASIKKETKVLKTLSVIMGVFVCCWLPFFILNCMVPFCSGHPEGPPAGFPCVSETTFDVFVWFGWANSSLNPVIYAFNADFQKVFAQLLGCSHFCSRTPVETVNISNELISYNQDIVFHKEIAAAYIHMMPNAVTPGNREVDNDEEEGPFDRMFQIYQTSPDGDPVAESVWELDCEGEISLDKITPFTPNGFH
Chain of Mitogen-activated protein kinase 1 (Homo sapiens) (P28482 whole entry): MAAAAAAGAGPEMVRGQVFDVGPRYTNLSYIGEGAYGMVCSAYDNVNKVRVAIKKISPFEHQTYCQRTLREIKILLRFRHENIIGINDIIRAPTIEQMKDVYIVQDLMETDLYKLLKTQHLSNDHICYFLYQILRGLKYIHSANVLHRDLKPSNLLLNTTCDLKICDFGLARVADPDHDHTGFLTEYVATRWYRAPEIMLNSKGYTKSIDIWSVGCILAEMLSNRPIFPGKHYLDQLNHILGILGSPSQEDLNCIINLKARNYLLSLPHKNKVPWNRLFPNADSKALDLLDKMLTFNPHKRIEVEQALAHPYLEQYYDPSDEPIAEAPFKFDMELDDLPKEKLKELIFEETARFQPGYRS
Chain of Tyrosine-protein kinase TXK (Homo sapiens) (P42681 whole entry): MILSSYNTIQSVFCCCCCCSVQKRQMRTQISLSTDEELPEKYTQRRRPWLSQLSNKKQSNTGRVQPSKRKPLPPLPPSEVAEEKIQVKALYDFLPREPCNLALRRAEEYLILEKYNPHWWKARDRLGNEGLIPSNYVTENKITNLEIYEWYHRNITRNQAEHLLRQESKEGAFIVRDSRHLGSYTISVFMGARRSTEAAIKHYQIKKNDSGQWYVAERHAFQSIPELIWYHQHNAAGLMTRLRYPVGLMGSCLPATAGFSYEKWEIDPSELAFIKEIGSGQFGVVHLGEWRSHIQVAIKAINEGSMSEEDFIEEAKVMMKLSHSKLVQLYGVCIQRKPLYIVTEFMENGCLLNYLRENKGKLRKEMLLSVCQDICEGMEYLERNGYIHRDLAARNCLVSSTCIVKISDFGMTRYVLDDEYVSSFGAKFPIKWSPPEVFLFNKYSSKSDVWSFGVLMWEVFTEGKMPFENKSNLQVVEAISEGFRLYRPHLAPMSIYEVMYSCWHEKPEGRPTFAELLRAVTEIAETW
Chain of Serine/threonine-protein kinase Nek3 (Homo sapiens) (P51956 whole entry): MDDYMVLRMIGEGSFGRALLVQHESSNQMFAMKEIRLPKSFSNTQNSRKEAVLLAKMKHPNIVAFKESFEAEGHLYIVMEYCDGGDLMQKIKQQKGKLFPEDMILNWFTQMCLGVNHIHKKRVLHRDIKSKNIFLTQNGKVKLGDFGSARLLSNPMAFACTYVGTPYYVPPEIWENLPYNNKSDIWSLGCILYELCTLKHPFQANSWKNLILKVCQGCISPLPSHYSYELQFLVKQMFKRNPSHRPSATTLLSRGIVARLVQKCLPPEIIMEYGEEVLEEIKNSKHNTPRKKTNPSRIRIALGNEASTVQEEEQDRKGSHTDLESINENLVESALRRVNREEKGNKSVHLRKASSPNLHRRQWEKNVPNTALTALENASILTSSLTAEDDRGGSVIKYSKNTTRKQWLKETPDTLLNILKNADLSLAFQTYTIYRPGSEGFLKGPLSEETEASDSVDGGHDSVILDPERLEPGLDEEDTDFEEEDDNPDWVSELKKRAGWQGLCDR
Chain of Activated CDC42 kinase 1 (Homo sapiens) (Q07912 whole entry, looked up): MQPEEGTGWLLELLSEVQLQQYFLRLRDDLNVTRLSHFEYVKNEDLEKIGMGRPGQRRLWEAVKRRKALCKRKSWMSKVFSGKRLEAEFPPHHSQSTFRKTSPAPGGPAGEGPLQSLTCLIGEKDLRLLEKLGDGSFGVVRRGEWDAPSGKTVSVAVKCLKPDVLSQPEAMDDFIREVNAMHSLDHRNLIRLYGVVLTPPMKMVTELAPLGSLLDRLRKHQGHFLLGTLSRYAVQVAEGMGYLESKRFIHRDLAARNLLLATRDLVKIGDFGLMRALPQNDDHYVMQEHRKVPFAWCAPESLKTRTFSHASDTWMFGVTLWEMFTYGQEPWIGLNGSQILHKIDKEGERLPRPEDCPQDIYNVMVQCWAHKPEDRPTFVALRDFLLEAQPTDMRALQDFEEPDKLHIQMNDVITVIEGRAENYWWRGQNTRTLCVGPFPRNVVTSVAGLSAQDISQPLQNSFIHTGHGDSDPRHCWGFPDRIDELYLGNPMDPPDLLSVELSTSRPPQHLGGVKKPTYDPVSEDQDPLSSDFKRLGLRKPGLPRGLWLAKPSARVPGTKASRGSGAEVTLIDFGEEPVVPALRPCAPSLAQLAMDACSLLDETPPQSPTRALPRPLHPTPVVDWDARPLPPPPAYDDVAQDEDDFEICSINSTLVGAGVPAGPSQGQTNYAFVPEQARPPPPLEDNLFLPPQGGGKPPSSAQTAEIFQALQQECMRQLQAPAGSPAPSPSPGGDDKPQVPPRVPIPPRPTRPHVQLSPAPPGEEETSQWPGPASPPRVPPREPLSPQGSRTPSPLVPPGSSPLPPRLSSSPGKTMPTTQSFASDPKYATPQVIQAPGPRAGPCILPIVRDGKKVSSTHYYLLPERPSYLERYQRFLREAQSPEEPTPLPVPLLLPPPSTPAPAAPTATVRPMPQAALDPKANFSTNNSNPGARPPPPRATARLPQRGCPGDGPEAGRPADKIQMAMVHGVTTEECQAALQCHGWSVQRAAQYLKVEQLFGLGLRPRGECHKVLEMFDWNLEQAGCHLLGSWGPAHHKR

SMILES | residual activity [1] | residual activity [2] | residual activity [3] | residual activity [4] | residual activity [5] | residual activity [6] | residual activity [7] | residual activity [8] | residual activity [9] | residual activity [10] | residual activity [11] | inhibition [12] | residual activity [13] | residual activity [14] | residual activity [15] | residual activity [16] | residual activity [17] | inhibition [18] | residual activity [19] | residual activity [20] | further results
CCCCN(CCCC)C(=O)CN1C[C@@H](c2cc(OC)c3c(c2)OCO3)[C@H](C(=O)O)[C@H]1CC(C)(C)CCC [A-545] | 93.4% | 100% | 100% | 72.9% | 100% | 86.7% | 100% | 100% | 99% | 100% | 98.2% | 27.1% | 100% | 95.2% | 100% | 100% | 93.7% | 3.71% | 83.2% | 91.3% | residual activity [21]: 82.1%; residual activity [22]: 100%; inhibition [23]: 30.5%; inhibition [24]: 76.3%; residual activity [25]: 96.4%; residual activity [26]: 94.8%; residual activity [27]: 91.6%; residual activity [28]: 100%; residual activity [29]: 99.4%; residual activity [30]: 98.9%; residual activity [31]: 80.7%; residual activity [32]: 83.5%; residual activity [33]: 100%
CCCCN(CCCC)C(=O)CN1C[C@H](c2cc(OC)c3c(c2)OCO3)[C@@H](C(=O)O)[C@@H]1CC(C)(C)CCC [ABT-546] | 100% | 100% | 100% | 99.1% | 100% | 100% | 95.6% | 100% | 92.8% | 94.3% | 100% | 3.64% | 100% | 80.7% | 94.3% | 71.9% | 98.7% | -1.89% | 65.3% | 85.2% | residual activity [21]: 100%; residual activity [22]: 59%; inhibition [23]: 17%; inhibition [24]: 20.6%; residual activity [25]: 96.4%; residual activity [26]: 96.5%; residual activity [27]: 100%; residual activity [28]: 65.8%; residual activity [29]: 100%; residual activity [30]: 100%; residual activity [31]: 100%; residual activity [32]: 100%; residual activity [33]: 90.5%
